The structures appear in SMILES notation.

Series [1] has as its system third instar T. ni larvae. Nature of the series: whole plant or invertebrate. The settings on record: contact toxicity to larvae; negative or zero values replaced by 0.1 for the index (footnote b). The procedure:
(§1) Initial screening for feeding deterrent effects was conducted at 50 μg/cm^2 in feeding deterrent bioassays.
Mortality was determined 24 h after spraying larvae directly with test solutions. Third instar T. ni larvae were sprayed in 90 mm×15 mm Petri dishes (Falcon) lined with Fisher Scientific filter paper (90 mm diameter). Small plastic hand spraying bottles (50 mL capacity) were used. Larvae were then transferred to Petri dishes (90 mm×15 mm) with a small piece of artificial diet. Each Petri dish contained 10 larvae. Three replicates, each consisting of 10 larvae, were used per treatment.

In the next series the test system is Trichoplusia ni larva. Nature of the series: Leaf-disc choice bioassay on cabbage: dose-response and blend assay (Example 12). Type of series: in vivo. On the procedure:
T. ni larvae were raised from eggs (Insect Production Services, Natural Resources Canada) on a wheat-germ based artificial diet (McMorran diet, Insect Production Services, Natural Resources Canada), or raised from eggs from a laboratory colony of T. ni adults, at 22±1° C., 32-40% humidity, 9 h/15 h light/dark photoperiod.
Cabbage (Brassica oleracea L. cv. Golden Acre) plants were grown from seed (Pacific Northwest Seeds, Vernon, B.C.) in sandy loam soil in the laboratory at 21±1° C. beside a south-facing window. Plants received supplemental lighting from grow-lights emitting light of wavelengths 430 and 662 nm for 2 h/d. Plants were about 2-3 months old (with about 8-12 fully expanded leaves) at time of leaf collection for disc choice bioassays.
3c{3,6} was synthesized as described herein. Azadirachtin in a neem oil preparation (TreeAzin [5% azadirachtins A and B]) was obtained from BioForest Technologies Inc., Sault Step. Marie, Canada. Azadirachtin solutions were prepared fresh on the day of the bioassay to avoid degradation. Cetyl alcohol was obtained from Sigma, palmitic acid from BDH Chemicals Ltd., methanol (HPLC-grade) from Calcdon, and isopropanol (2-propanol-205, distilled in glass) from Calcdon Ammonium hydroxide solution was obtained from CanLab.
Blend and whole plant studies used a “vehicle” that consisted of palmitic acid (25 mM), cetyl alcohol (25 mM), and isopropanol (50%). The vehicle was prepared by dissolving palmitic acid and cetyl alcohol in isopropanol. The solution was neutralized with 1M NaOH, followed by step-wise dilution with water.
Leaf discs (disc area: 2.24 cm^2) cut with a no. 10 borer from cabbage plant leaves were painted on each side with 20 μL of treatment solution or solvent, using a Hamilton 25 μL glass syringe, and allowed to dry. One treatment and one control leaf disc were placed on opposite sides (5 cm apart) of a 9 cm diameter Petri dish containing moistened filter paper (Whatman #1, 70 mm). A fasting Trichoplusia ni larva was placed midway between the two leaf discs and oriented away from either disc. Replicate Petri dishes were kept in a plastic basin, protected from light, at 22±1° C. during the feeding period. Larvae fasted for approximately 7 h prior to the experiments. […]
Leaf disc areas consumed were measured using a Canon CanoS can LiDE 20 scanner, CanoScan Toolbox 4.1 software, Microsoft Office Picture Manager, and Un-Scan-It Gel and Graph Digitizing Software v. […]
In the dose-response study leaf-disc choice bioassays were performed with larvae in day 1 or 2 of the 3rd and 4th instar. […] There were not enough data points in the dose-response data for a sigmoidal fit, but the DC50 could be determined by linear regression analysis, as was the case for Akhtar et al. (2007). […]

Series [2] concerns third instar T. ni larvae. Nature of the series: Leaf disk choice feeding deterrence bioassay. The format is in vivo, Trichoplusia ni.
From the text: Cabbage plants (Brassica oleraceae var. Stonehead) used in the bioassays were routinely grown in plastic pots with a mixture of sandy loam soil and peat moss (4:1) in a greenhouse at the University of British Columbia, Vancouver, BC, Canada. Leaves were collected from cabbage plants that were 5-6 weeks old.
T. ni larvae and moths were obtained from a long established colony (>50 generations) maintained on an artificial diet, Velvetbean Caterpillar Diet No. F9796 [Bio-Sery Inc. (Frenchtown, NIL)] in the insectary of the University of British Columbia (UBC).
as §1
Larvae were given the choice of feeding on two leaf disks, one treated with 10 μL of a solution of the test substance painted on each side and the other treated with a carrier solvent alone. The number of larvae was 25 per treatment.
Feeding deterrence data (percent) for initial screening concentration were analyzed by analysis of variance (ANOVA) after arcsin transformation using statistics software (Statistix 7. Analytical Software, Statistix 7 for Windows 95, 98, NT, 2000. Analytical Software, Tallahassee).

For the next series, the system named is T. ni neonates. Nature of the series: Greenhouse test on cabbage plants with T. ni neonates. The format is in vivo, Trichoplusia ni. To be noted: for mean larval recovery / weight reduction: 6 days. The procedure: […] Cabbage plants had 3-5 leaves. Each plant was sprayed (˜1 ml/leaf) and dried before the introduction of insects. There were 3 replicates of 5 plants for each treatment. Approximately nine T. ni neonates (<24 h old) were transferred on each plant. They were weighed after 6 days of feeding on the treatments. Numbers of larvae recovered from each treatment were also recorded. […] The mean larval recovery was not affected at the lowest concentration (0.0002%).

A further series relates to T. ni moths. Nature of the series: Oviposition choice (deterrence) bioassay on cabbage leaves. To be noted: Trichoplusia, 48 h, Table 8; at 0.25%; read-out: OD (%) Mean ± SE N = 35-40. The format is in vivo, Trichoplusia ni.

Consider `C=CCOc1ccc(OCCC)cc1` [3c{3, 6}, 1-allyloxy-4-propoxybenzene], for which, in series [1], the “% mortality” value was −11 ^b %. The “FDI (%) mean (SE)” value was 100 (0) b % with Trichoplusia ni larva (45 ug/cm^2) and 100±0% in the series on Trichoplusia ni larva (45 ug/cm^2, listed as 3c{3,6}). Also, the DC50 in the series on Trichoplusia ni larva (3rd and 4th instar larvae, 83% methanol, linear regression 9 to 45 μg/cm^2) was 27 μg/cm^2; in series [2] (feeding deterrence DC50, unit not given in Table 12), 0.5 μg/cm^2. The pest or weed control at 50 µg/cm2, 50 µg/cm2 in series [2] (Trichoplusia, foliar, Table 8, 50 μg/cm^2, read-out: F.D (%) Mean ± SE N = 25) was found to be 100%. In series [2] (Trichoplusia, foliar, feeding deterrence (FD), Table 12, non-toxic feeding deterrents, read-out: % deterrence), the pest or weed control at 50 µg/cm2 was 100%. In addition, the mean larval recovery entry in the series with T. ni neonates (0.0002% spray) is “not affected”; in the series on T. ni neonates (0.0005% spray) it was 66.7%; in the series with T. ni neonates (0.001% spray), 52%. In the series with T. ni neonates (0.0002% spray, 6 days feeding on cabbage plants), the “weight of the larvae” value is “not affected”. Further, the weight reduction in the series on T. ni neonates (0.0005% spray) worked out at 33.3%; in the series with T. ni neonates (0.001% spray) it was 48%. Moreover, the growth reduction with T. ni neonates (10 ppm, highest concentration) is listed as around 50%. Also, the pest or weed control at 0.25 % in the series on T. ni moths was below 30%.

In the case of `C/C=C(\C)C(=O)O[C@H]1C[C@@H](OC(C)=O)[C@@]2(C(=O)OC)CO[C@H]3[C@@H](O)[C@@](C)([C@]45O[C@@]4(C)[C@H]4C[C@@H]5O[C@@H]5OC=C[C@@]54O)[C@H]4[C@]1(CO[C@]4(O)C(=O)OC)[C@@H]32` [azadirachtin, reference compound], in the series on Trichoplusia ni larva (4.9 ug/cm^2 in vehicle, fifth instar larvae), the “FDI (%) mean (SE)” value is given as 43 (20) a %.

The values above are taken from US9125406B2, “Methods and compositions for control of cabbage looper, trichoplusia ni” (Simon Fraser University, priority 2008, dated 2015).
